Patent US5672603A, “Apoptosis regulating composition” (Otsuka Pharmaceutical Co., Ltd., priority 1991, dated 1997)

Tests used:
[1] = test system: Human stomach cancer cells (KATO-III); test: Cancer cell growth inhibition, KATO-III; format: cell-based; conditions: control 100
Method: The cell concentration was adjusted to 1×10^5 cells/ml using the same medium as used above in (1).
Test compound 1 was dissolved in acetic acid, followed by dilution with the same medium as used above in (1) and neutralization with 2N NaOH to give final concentrations of 100 μg/ml, 10 μg/ml and 1.0 μg/ml.
a) The test compound solutions prepared as described above under (3) were added to the HL-60 cell suspension prepared as described above under (1) to final concentrations of 10 μg/ml and 1.0 μg/ml. Using 12-well culture plates (Costar), cultivation was conducted in a 5% carbon dioxide gas incubator maintained at 37° C. for 3 to 4 days. The test compound-free medium was used as a control. Thereafter, the cell suspension in each well was sampled and mixed with 0.2% trypan blue-containing phosphate buffer, and unstained viable cells were counted under a microscope. Based on the counting result, the viable cell concentration was readjusted to 1×10^5 cells/ml, and cultivation was continued under the same conditions.
KATO-III cells prepared as described above under (2) were cultivated in the same manner.

HL-60 cells = test: Differentiation inducing test: reactivity of HL-60 cells with monoclonal antibody FH-6 (sialyl Le^X); format: cell-based, human; conditions: 2 hours; for Positive rate (%), FH-6: control 95
Method: The monoclonal antibody FH-6 capable of recognizing sialyl Le^X was fluoresein (FITC)-labeled, and the reactivity between the active ingredient compound of the present invention and FH-6 was examined by flow cytometry as follows.
The test compound solutions prepared as described above under (3) were added to HL-60 cells prepared as described above under (1) to a final concentration of 1.0 μg/ml or 10 μg/ml. Cultivation was conducted in a 5% carbon dioxide gas incubator at 37° C. for 2 hours. Thereafter, the cell concentration was adjusted to 1 x 10^6 cells/ml and 100 μl of each aliquot was reacted with 10 μl of the fluorescein-labeled FH-6 solution, followed by flow cytometry.

M12 melanoma cells = test: M12 melanoma cell growth inhibition in nude mice; format: in vivo, Balb/c nude mice; conditions: 10 mg/kg daily oral, day 25 to day 55; FIG. 2; * p<0.05
Method: This study was performed in groups of 10 Balb/c nude mice.
On the first day of the experiment (day 0), 2×10^6 M12 melanoma cells were transplanted into mice in the test group. When the tumor volume reached 100 mm^3, the test Compound 1 was administered orally in doses of 10 mg/kg daily to the mice. This treatment was carried out 30 times from day 25 to day 55. The tumor diameter was measured using calipers everyday after transplantation of tumor cells. The tumor volume was calculated according to the following formula.
Tumor volume (mm^3)=(long diameter)×(short diameter)^2 ×1/2

[2] = test system: human peripheral blood acute lymphocytic leukemia cells (Molt-4); test: ATL-infected cell growth inhibition test: ATLV-noninfected cells; format: cell-based; conditions: for Number of ATLV-noninfected cells: 4 days, control 13.9
Method: Human peripheral blood acute lymphocytic leukemia cells (Molt-4) [J. Minowada, et al., J. Natl. Cancer Inst., 49, 891-895 (1972): ATCC CRL1582] were used to prepare a suspension of 1×10^5 cells/ml in RPMI-1640 medium (Gibco) supplemented 10% fetal calf serum (FCS, Gibco) for use as ATL virus-noninfected cells.
Compound 1 was dissolved in hydrochloric acid, diluted with the same medium as above, neutralized with 2N NaOH and adjusted to concentrations of 1 μg/ml, 10 μg/ml and 30 μg/ml.
The cells prepared in (a) and (b) above were respectively placed in wells of a 24-well culture plate (Nunc), followed by addition of the test compound prepared in (c) (final concentration: 1 μg/ml, 10 μg/ml or 30 μg/ml), and cultured at 37° C. in a 5% carbon dioxide incubator for 4 days. As a control, the medium without addition of the test compound was used. After completion of incubation, the cell suspension in each well was taken for determination of viable cells.

CMK cells = test: Morphological observation of CMK cells; format: cell-based, human; conditions: 30 μg/ml; 4 days
Method: CMK cells, 1×10^5 cells/ml, were incubated in 10% FCS-added RPMI-1640 medium containing Compound 1 for 4 days and observed for the morphology of cells under the phase contrast microscope. A portion of the cell population was taken and a cytospin preparation was prepared and stained with Wright-Giemsa stain for determination of the cell morphology.
Thus, FIGS. 4 and 6 are the phase constrast micrograph and stained map, respectively, of the medium control, and FIGS. 5 and 7 represent the corresponding figures for cells treated with 30 μg/ml of Compound 1.

[3] = test system: acute hepatic failure model; test: Effect on hepatic failure (heat-killed bacteria / LPS), survival; format: in vivo, Balb/c mice; conditions: for Survival rate: 7 days after LPS, untreated 0%, solvent 10%
Method: Heat-killed cells of P. aches (a gift from Dr. Mizoguchi, the Third Department of Internal Medicine, Osaka City University School of Medicine) were administered intravenously in a dose of 3 mg/body to male Balb/c mice (7 weeks old, purchased from Japan SLC). Seven days later; a solvent group (0.5% CMC, Dai-ichi Kogyo Seiyaku Co., Ltd) and an untreated group, as well as the test groups given 10 or 100 mg/kg of Compound 1 orally, were provided. One hour after administration of Compound 1, 5 μg/body of lipopolysaccharide (LPS, Sigma Co., Ltd.) was administered intravenously to induce acute hepatic failure.

SMILES: COc1ccc(C(=O)N2CCN(c3ccc4c(c3)CCC(=O)N4)CC2)cc1OC [Compound 1, 6-[4-(3,4-Dimethoxybenzoyl)-1-piperazinyl]-3,4-dihydrocarbostyril]
- activity at 1 µg/mL ([1]; 576 h, on day 24, 1.0 μg/ml): 88 ± 2.3%
- activity at 10 µg/mL ([1]; 576 h, on day 24, 10 μg/ml): 61 ± 1.5%
- activity at 1 µg/mL ([1]; 792 h, on day 33, 1.0 μg/ml): 0%
- activity at 10 µg/mL ([1]; 792 h, on day 33, 10 μg/ml): 0%
- Sialic acid on HL-60 cell surface (HL-60 cells; 1.0 or 10 μg/ml): loss of sialic acid from the HL-60 cell surface
- Positive rate (%), FH-6 (HL-60 cells; 1.0 μg/ml): 82%
- Positive rate (%), FH-6 (HL-60 cells; 10 μg/ml): 76%
- Growth of M12 melanoma cells (tumor volume) (M12 melanoma cells): significantly inhibits growth of M12 melanoma cells
- Number of ATLV-noninfected cells ([2]; 1 μg/ml): 13.9 ×10^5
- Number of ATLV-noninfected cells ([2]; 10 μg/ml): 12.2 ×10^5
- Number of ATLV-noninfected cells ([2]; 30 μg/ml): 12.8 ×10^5
- Effect on ATLV-noninfected cells (in words) ([2]; 1-30 μg/ml): does not affect ATLV-noninfected cells
- Morphology, Wright-Giemsa stained map (CMK cells): budding of the cell membrane and lobulation of the nuclei
- Morphology, phase contrast micrograph (CMK cells): fragmentation of cells like in the process of platelet production
- Survival rate ([3]; 10 mg/kg oral): 30%
- Survival rate ([3]; 100 mg/kg oral): 70%
- Life-prolonging effect in acute hepatitis model (in words) ([3]; 10 and 100 mg/kg oral): dose-dependent and excellent life-prolonging effect
